Measured values from PubChem BioAssay AID330 (DTP/NCI, 2004).
Several values for one entry are separate records, joined by “and”; a condition that tells them apart may be missing. Equal values may be shown once. Inconclusive results and toxic doses are left out. The calls were made as follows: active = survival T/C of 150% or more; inactive = T/C below 125% in these data.

System: P388 leukemia ip, CD2F1 mice, survival T/C
Experiment: NCI In Vivo Anticancer Drug Screen. Data for tumor model P388 Leukemia (intraperitoneal) in CD2F1 (CDF1) mice
Conditions: endpoint: median survival time, higher = longer survival
Summary of the method: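 Mice carrying the transplanted tumor received test compound or vehicle. Survival was recorded in each group, and the value is the treated-group measurement divided by that of the vehicle-treated control group.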

[1] = dose: 12.5 mg/kg/injection, schedule: Q01DX005 (ip), vehicle: saline
[2] = dose: 25.0 mg/kg/injection, schedule: Q01DX005 (ip), vehicle: saline
[3] = dose: 50.0 mg/kg/injection, schedule: Q01DX005 (ip), vehicle: saline
[4] = dose: 60.0 mg/kg/injection, schedule: Q01DX005 (ip), vehicle: Klucel (hydroxypropylcellulose) (HPC)
[5] = dose: 120.0 mg/kg/injection, schedule: Q01DX005 (ip), vehicle: Klucel (hydroxypropylcellulose) (HPC)
[6] = dose: 60.0 mg/kg/injection, schedule: Q01DX005 (ip), vehicle: saline with Tween-80
[7] = dose: 120.0 mg/kg/injection, schedule: Q01DX005 (ip), vehicle: saline with Tween-80
[8] = dose: 240.0 mg/kg/injection, schedule: Q01DX005 (ip), vehicle: saline with Tween-80
[9] = dose: 50.0 mg/kg/injection, schedule: Q01DX009 (ip), vehicle: saline
[10] = dose: 50.0 mg/kg/injection, schedule: Q01DX009 (ip), vehicle: Klucel (hydroxypropylcellulose) (HPC)
[11] = dose: 100.0 mg/kg/injection, schedule: Q01DX009 (ip), vehicle: Klucel (hydroxypropylcellulose) (HPC)
[12] = dose: 200.0 mg/kg/injection, schedule: Q01DX009 (ip), vehicle: Klucel (hydroxypropylcellulose) (HPC)
[13] = dose: 400.0 mg/kg/injection, schedule: Q01DX009 (ip), vehicle: Klucel (hydroxypropylcellulose) (HPC)
[14] = dose: 25.0 mg/kg/injection, schedule: Q01DX009 (ip), vehicle: saline with Tween-80
[15] = dose: 50.0 mg/kg/injection, schedule: Q01DX009 (ip), vehicle: saline with Tween-80
[16] = dose: 50.0 mg/kg/injection, schedule: Q01DX005 (ip), vehicle: saline with Tween-80
[17] = dose: 100.0 mg/kg/injection, schedule: Q01DX005 (ip), vehicle: saline with Tween-80
[18] = dose: 200.0 mg/kg/injection, schedule: Q01DX005 (ip), vehicle: saline with Tween-80

Measured: T/C

NCC(c1ccccc1)C1CCCCC1 (centres undefined)
inactive: [1] 103 % of control | [2] 94 % of control | [3] 100 % of control and 95 % of control

O=C1C2(CCCC13N=NCC3c1ccccc1)N=NCC2c1ccccc1 (centres undefined)
inactive: [4] 93 % of control | [5] 88 % of control | dose: 240.0 mg/kg/injection, schedule: Q01DX005 (ip), vehicle: Klucel (hydroxypropylcellulose) (HPC) 93 % of control

CCOC(=O)N(O)c1ccc(C)cc1
inactive: dose: 100.0 mg/kg/injection, schedule: Q04DX002 (ip), vehicle: saline with Tween-80 109 % of control | dose: 200.0 mg/kg/injection, schedule: Q04DX002 (ip), vehicle: saline with Tween-80 112 % of control | dose: 400.0 mg/kg/injection, schedule: Q04DX002 (ip), vehicle: saline with Tween-80 124 % of control

NS(=O)(=O)c1cc2c(cc1Cl)NC(Cc1ccccc1)NS2(=O)=O (centres undefined)
inactive: [6] 100 % of control | [7] 93 % of control | [8] 93 % of control

CCN(CC)C(=NC(C)(C)C)c1ccccc1
inactive: dose: 3.12 mg/kg/injection, schedule: Q01DX009 (ip), vehicle: saline 101 % of control and 93 % of control and 97 % of control | dose: 6.25 mg/kg/injection, schedule: Q01DX005 (ip), vehicle: Klucel (hydroxypropylcellulose) (HPC) 107 % of control | dose: 6.25 mg/kg/injection, schedule: Q01DX009 (ip), vehicle: saline 96 % of control and 97 % of control | dose: 12.5 mg/kg/injection, schedule: Q01DX005 (ip), vehicle: Klucel (hydroxypropylcellulose) (HPC) 100 % of control | dose: 25.0 mg/kg/injection, schedule: Q01DX005 (ip), vehicle: Klucel (hydroxypropylcellulose) (HPC) 107 % of control | [9] 99 % of control

COc1ccc(/C=N/NC(N)=O)c(OC)c1OC
inactive: [10] 100 % of control | [11] 103 % of control | [12] 98 % of control

CCOC(=O)/C(=C/Nc1ccc(O)cc1)NC(=O)c1ccccc1
inactive: [10] 103 % of control and 104 % of control | [11] 94 % of control and 97 % of control | [12] 118 % of control and 87 % of control | [13] 89 % of control

CC1=CC2=C(C#N)C(=O)OC2(C)C(c2ccccc2)C1 (centres undefined)
inactive: [6] 100 % of control | [7] 101 % of control | [8] 100 % of control

CCCNCCC(O)c1cc(C(F)(F)F)nc2c(C(F)(F)F)cccc12 (centres undefined)
inactive: [14] 102 % of control | [15] 110 % of control | dose: 100.0 mg/kg/injection, schedule: Q01DX009 (ip), vehicle: saline with Tween-80 109 % of control

CCOC(=O)c1cn(C)c(=O)c(Br)c1C#N
inactive: [16] 92 % of control | [17] 96 % of control | [18] 93 % of control

CC(=O)Oc1cccc2c1C(=O)c1c(OC(C)=O)cccc1C2=O
inactive: dose: 1.56 mg/kg/injection, schedule: Q04DX003 (ip), vehicle: Klucel (hydroxypropylcellulose) (HPC) 99 % of control and 89 % of control | dose: 3.12 mg/kg/injection, schedule: Q04DX003 (ip), vehicle: Klucel (hydroxypropylcellulose) (HPC) 97 % of control | dose: 3.13 mg/kg/injection, schedule: Q04DX003 (ip), vehicle: Klucel (hydroxypropylcellulose) (HPC) 107 % of control | dose: 6.25 mg/kg/injection, schedule: Q04DX003 (ip), vehicle: Klucel (hydroxypropylcellulose) (HPC) 99 % of control and 97 % of control | dose: 12.5 mg/kg/injection, schedule: Q04DX003 (ip), vehicle: Klucel (hydroxypropylcellulose) (HPC) 99 % of control and 92 % of control | [10] 87 % of control | [12] 87 % of control | [13] 96 % of control

C#CCN1CCCCC1
inactive: [1] 105 % of control | [2] 100 % of control | [3] 100 % of control and 107 % of control

O=C(CCN1CCCC1)Nc1nc(-c2ccc(Cl)cc2)cs1
inactive: [16] 102 % of control | [17] 93 % of control | [18] 94 % of control

Nc1ncc(CCCOc2ccccc2)c(=O)[nH]1
inactive: dose: 100.0 mg/kg/injection, schedule: Q01DX001 (ip), vehicle: saline with Tween-80 90 % of control | dose: 200.0 mg/kg/injection, schedule: Q01DX001 (ip), vehicle: saline with Tween-80 90 % of control | dose: 400.0 mg/kg/injection, schedule: Q01DX001 (ip), vehicle: saline with Tween-80 90 % of control

CC(C)CC(NC(=O)OCc1ccccc1)C(=O)NC(Cc1c[nH]c2ccccc12)C(=O)O (centres undefined)
inactive: [16] 100 % of control | [17] 103 % of control | [18] 102 % of control

COc1ccc2nc(NC(=O)Nc3c(Cl)cccc3Cl)sc2c1
inactive: [6] 95 % of control | [7] 101 % of control | [8] 88 % of control

Cc1cc2c(cc1C)C(O)(C#Cc1ccccc1)c1c(C)ccc(C)c1C2=O (centres undefined)
inactive: dose: 100.0 mg/kg/injection, schedule: Q04DX003 (ip), vehicle: saline with Tween-80 100 % of control | dose: 200.0 mg/kg/injection, schedule: Q04DX003 (ip), vehicle: saline with Tween-80 100 % of control | dose: 400.0 mg/kg/injection, schedule: Q04DX003 (ip), vehicle: saline with Tween-80 97 % of control

O=C1OI(O)c2ccccc21
inactive: [4] 106 % of control | [5] 106 % of control

COC(=O)C1CC2c3cc4c(cc3CCN2CC1C(=O)OC)OCO4 (centres undefined)
inactive: dose: 0.63 mg/kg/injection, schedule: Q01DX009 (ip), vehicle: distilled water + Tween-80 101 % of control | dose: 1.25 mg/kg/injection, schedule: Q01DX009 (ip), vehicle: distilled water + Tween-80 99 % of control | dose: 2.5 mg/kg/injection, schedule: Q01DX009 (ip), vehicle: distilled water + Tween-80 106 % of control | dose: 5.0 mg/kg/injection, schedule: Q01DX009 (ip), vehicle: distilled water + Tween-80 97 % of control | dose: 10.0 mg/kg/injection, schedule: Q01DX009 (ip), vehicle: distilled water + Tween-80 108 % of control | dose: 20.0 mg/kg/injection, schedule: Q01DX009 (ip), vehicle: distilled water + Tween-80 106 % of control

CC(NC(=O)C(N)Cc1ccc(O)cc1)C(=O)NCC(=O)N(C)C(Cc1ccccc1)C(=O)NC(CO)CCS(C)=O (centres undefined)
inactive: [9] 115 % of control | dose: 100.0 mg/kg/injection, schedule: Q01DX009 (ip), vehicle: saline 95 % of control | dose: 200.0 mg/kg/injection, schedule: Q01DX009 (ip), vehicle: saline 105 % of control

CC(C)OC(=O)Nc1ccccc1Cl
inactive: dose: 12.5 mg/kg/injection, schedule: Q01DX009 (ip), vehicle: saline with Tween-80 104 % of control | [14] 100 % of control | [15] 109 % of control

COc1cccc2cc(-n3nnc4cc([N+](=O)[O-])ccc43)c(=O)oc12
inactive: dose: 12.5 mg/kg/injection, schedule: Q01DX005 (ip), vehicle: saline with Tween-80 95 % of control | dose: 25.0 mg/kg/injection, schedule: Q01DX005 (ip), vehicle: saline with Tween-80 93 % of control | [16] 92 % of control and 95 % of control | [17] 97 % of control | [18] 98 % of control

CCCCCC(=O)C(CCCC)(c1nc2n(c1O)C(=N)N=N2)c1nc2n(c1O)C(=N)N=N2 (centres undefined)
inactive: [16] 107 % of control | [17] 93 % of control

S=C(N/N=C/c1ccc(Cl)cc1)Nc1ccccc1
inactive: [11] 101 % of control | [12] 100 % of control | [13] 93 % of control
